Test results reported in the supplement of paper PMC10307832.

compound: CC1(C)CNc2cc(NC(=O)c3cccnc3NCc3ccncc3)ccc21 [Motesanib] + CS(=O)(=O)N1CCN(Cc2cc3nc(-c4cccc5[nH]ncc45)nc(N4CCOCC4)c3s2)CC1 [Pictilisib] (partner 1 µM); experiment: relative viability (nuclei count vs DMSO), 5 days (fraction); higher = more cells survive; details: first compound 0.01 µM
Outline: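 Five library-drug doses in √10 steps were combined with a fixed anchor-drug dose, or a single drug was given alone, by pin tool to lung cancer cell lines in 1536-well plates the day after seeding. Nuclei were stained and counted after 5 days. Relative viability is the nuclei count in treated wells over that in vehicle wells, taken as the median of duplicate plates.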

Q: With HARA as the cell line, how does the relative viability read?
A: 0.372

Q: With HCC-78 as the cell line, how does the relative viability read?
A: 0.182

Q: For NCI-H322M, which relative viability is on record?
A: 0.52

Q: With LCLC-97TM1 as the cell line, how does the relative viability read?
A: 0.224

Q: NCI-H2009 was tested. Which relative viability did it give?
A: 0.734

Q: A-427 was tested. Which relative viability did it give?
A: 0.43

Q: How did the relative viability turn out when NCI-H661 was run?
A: 0.327

Q: Which relative viability does the source give for NCI-H1734 here?
A: 0.446

Q: For NCI-H460, which relative viability is on record?
A: 0.356

Q: NCI-H2347 was tested. Which relative viability did it give?
A: 0.476

Q: SK-LU-1 was tested. Which relative viability did it give?
A: 0.494

Q: For NCI-H1395, which relative viability is on record?
A: 0.61

Q: How did the relative viability turn out when 201T was run?
A: 0.671

Q: Which relative viability does the source give for NCI-H1915 here?
A: 0.933

Q: Which relative viability does the source give for HCC-827 here?
A: 1.12

Q: LXF-289 was tested. Which relative viability did it give?
A: 0.776

same assay, conditions: first compound 0.03162 µM

Q: Calu-6 was tested. Which relative viability did it give?
A: 0.727

Q: HCC-366 was tested. Which relative viability did it give?
A: 0.149

Q: With NCI-H1666 as the cell line, how does the relative viability read?
A: 0.5

Q: NCI-H596 was tested. Which relative viability did it give?
A: 0.427

Q: For LK-2, which relative viability is on record?
A: 0.513

Q: NCI-H2087 was tested. Which relative viability did it give?
A: 0.794

Q: With SK-MES-1 as the cell line, how does the relative viability read?
A: 0.405

Q: H3255 was tested. Which relative viability did it give?
A: 0.487

Q: How did the relative viability turn out when COR-L23 was run?
A: 0.864

Q: COR-L 105 was tested. Which relative viability did it give?
A: 0.439

Q: Which relative viability does the source give for IA-LM here?
A: 0.346

Q: Which relative viability does the source give for LOU-NH91 here?
A: 0.523

Q: With NCI-H2170 as the cell line, how does the relative viability read?
A: 0.347

Q: Which relative viability does the source give for NCI-H2405 here?
A: 0.393

Q: HOP-62 was tested. Which relative viability did it give?
A: 0.843

Q: For HCC-44, which relative viability is on record?
A: 0.611

Q: Which relative viability does the source give for A549 here?
A: 0.478

Q: How did the relative viability turn out when LU99A was run?
A: 0.327

Q: How did the relative viability turn out when BEN was run?
A: 0.618

Q: For HARA, which relative viability is on record?
A: 0.366

Q: How did the relative viability turn out when HCC-78 was run?
A: 0.198

Q: Which relative viability does the source give for NCI-H322M here?
A: 0.544

Q: Which relative viability does the source give for LCLC-97TM1 here?
A: 0.204

Q: NCI-H2009 was tested. Which relative viability did it give?
A: 0.732

Q: A-427 was tested. Which relative viability did it give?
A: 0.684

Q: For NCI-H661, which relative viability is on record?
A: 0.35

Q: NCI-H1734 was tested. Which relative viability did it give?
A: 0.496

Q: With NCI-H460 as the cell line, how does the relative viability read?
A: 0.424

Q: Which relative viability does the source give for NCI-H2347 here?
A: 0.803

Q: With SK-LU-1 as the cell line, how does the relative viability read?
A: 0.481

Q: Which relative viability does the source give for NCI-H1395 here?
A: 0.566

Q: Which relative viability does the source give for 201T here?
A: 0.688

Q: NCI-H1915 was tested. Which relative viability did it give?
A: 0.984

Q: How did the relative viability turn out when HCC-827 was run?
A: 1.13

Q: With LXF-289 as the cell line, how does the relative viability read?
A: 0.811

same assay, conditions: first compound 0.1 µM

Q: With Calu-6 as the cell line, how does the relative viability read?
A: 0.944

Q: How did the relative viability turn out when HCC-366 was run?
A: 0.139

Q: Which relative viability does the source give for NCI-H1666 here?
A: 0.416

Q: Which relative viability does the source give for NCI-H596 here?
A: 0.362

Q: With LK-2 as the cell line, how does the relative viability read?
A: 0.555

Q: Which relative viability does the source give for NCI-H2087 here?
A: 0.705

Q: SK-MES-1 was tested. Which relative viability did it give?
A: 0.403

Q: Which relative viability does the source give for H3255 here?
A: 0.491

Q: For COR-L23, which relative viability is on record?
A: 0.732

Q: With COR-L 105 as the cell line, how does the relative viability read?
A: 0.395

Q: IA-LM was tested. Which relative viability did it give?
A: 0.351

Q: LOU-NH91 was tested. Which relative viability did it give?
A: 0.563

Q: With NCI-H2170 as the cell line, how does the relative viability read?
A: 0.294

Q: NCI-H2405 was tested. Which relative viability did it give?
A: 0.433

Q: HOP-62 was tested. Which relative viability did it give?
A: 0.507

Q: HCC-44 was tested. Which relative viability did it give?
A: 0.891

Q: With A549 as the cell line, how does the relative viability read?
A: 0.504

Q: With LU99A as the cell line, how does the relative viability read?
A: 0.309

Q: Which relative viability does the source give for BEN here?
A: 0.624

Q: For HARA, which relative viability is on record?
A: 0.405

Q: How did the relative viability turn out when HCC-78 was run?
A: 0.174

Q: NCI-H322M was tested. Which relative viability did it give?
A: 0.511

Q: With LCLC-97TM1 as the cell line, how does the relative viability read?
A: 0.15

Q: For NCI-H2009, which relative viability is on record?
A: 0.818

Q: Which relative viability does the source give for A-427 here?
A: 0.495

Q: How did the relative viability turn out when NCI-H661 was run?
A: 0.348

Q: NCI-H1734 was tested. Which relative viability did it give?
A: 0.461

Q: For NCI-H460, which relative viability is on record?
A: 0.302

Q: With NCI-H2347 as the cell line, how does the relative viability read?
A: 0.382

Q: Which relative viability does the source give for SK-LU-1 here?
A: 0.553

Q: Which relative viability does the source give for NCI-H1395 here?
A: 0.609

Q: With 201T as the cell line, how does the relative viability read?
A: 0.68

Q: With NCI-H1915 as the cell line, how does the relative viability read?
A: 0.657

Q: HCC-827 was tested. Which relative viability did it give?
A: 0.866

Q: LXF-289 was tested. Which relative viability did it give?
A: 0.774

same assay, conditions: first compound 0.3162 µM

Q: Calu-6 was tested. Which relative viability did it give?
A: 0.867

Q: With HCC-366 as the cell line, how does the relative viability read?
A: 0.139

Q: For NCI-H1666, which relative viability is on record?
A: 0.463

Q: For NCI-H596, which relative viability is on record?
A: 0.384

Q: How did the relative viability turn out when LK-2 was run?
A: 0.621

Q: For NCI-H2087, which relative viability is on record?
A: 0.988

Q: For SK-MES-1, which relative viability is on record?
A: 0.381

Q: How did the relative viability turn out when H3255 was run?
A: 0.488

Q: How did the relative viability turn out when COR-L23 was run?
A: 0.836

Q: COR-L 105 was tested. Which relative viability did it give?
A: 0.49

Q: For IA-LM, which relative viability is on record?
A: 0.318

Q: With LOU-NH91 as the cell line, how does the relative viability read?
A: 0.547

Q: With NCI-H2170 as the cell line, how does the relative viability read?
A: 0.331

Q: For NCI-H2405, which relative viability is on record?
A: 0.425

Q: For HOP-62, which relative viability is on record?
A: 1.08

Q: HCC-44 was tested. Which relative viability did it give?
A: 0.673

Q: How did the relative viability turn out when A549 was run?
A: 0.574

Q: LU99A was tested. Which relative viability did it give?
A: 0.386

Q: Which relative viability does the source give for BEN here?
A: 0.579

Q: For HARA, which relative viability is on record?
A: 0.389

Q: How did the relative viability turn out when HCC-78 was run?
A: 0.207

Q: With NCI-H322M as the cell line, how does the relative viability read?
A: 0.439

Q: With LCLC-97TM1 as the cell line, how does the relative viability read?
A: 0.235

Q: Which relative viability does the source give for NCI-H2009 here?
A: 0.827

Q: For A-427, which relative viability is on record?
A: 0.681

Q: With NCI-H661 as the cell line, how does the relative viability read?
A: 0.379

Q: For NCI-H1734, which relative viability is on record?
A: 0.479

Q: NCI-H460 was tested. Which relative viability did it give?
A: 0.364

Q: NCI-H2347 was tested. Which relative viability did it give?
A: 0.456

Q: Which relative viability does the source give for SK-LU-1 here?
A: 0.628

Q: How did the relative viability turn out when NCI-H1395 was run?
A: 0.646

Q: For 201T, which relative viability is on record?
A: 0.679

Q: Which relative viability does the source give for NCI-H1915 here?
A: 0.994

Q: Which relative viability does the source give for HCC-827 here?
A: 1.01

Q: Which relative viability does the source give for LXF-289 here?
A: 0.806

same assay, conditions: first compound 1 µM

Q: Which relative viability does the source give for Calu-6 here?
A: 0.84

Q: With HCC-366 as the cell line, how does the relative viability read?
A: 0.137

Q: NCI-H1666 was tested. Which relative viability did it give?
A: 0.49

Q: NCI-H596 was tested. Which relative viability did it give?
A: 0.406

Q: LK-2 was tested. Which relative viability did it give?
A: 0.537

Q: Which relative viability does the source give for NCI-H2087 here?
A: 0.843

Q: For SK-MES-1, which relative viability is on record?
A: 0.339

Q: With H3255 as the cell line, how does the relative viability read?
A: 0.427

Q: COR-L23 was tested. Which relative viability did it give?
A: 0.854

Q: COR-L 105 was tested. Which relative viability did it give?
A: 0.385

Q: IA-LM was tested. Which relative viability did it give?
A: 0.519

Q: With LOU-NH91 as the cell line, how does the relative viability read?
A: 0.568

Q: For NCI-H2170, which relative viability is on record?
A: 0.344

Q: How did the relative viability turn out when NCI-H2405 was run?
A: 0.434

Q: How did the relative viability turn out when HOP-62 was run?
A: 1.01

Q: HCC-44 was tested. Which relative viability did it give?
A: 0.474

Q: For A549, which relative viability is on record?
A: 0.57

Q: With LU99A as the cell line, how does the relative viability read?
A: 0.352

Q: For BEN, which relative viability is on record?
A: 0.715

Q: Which relative viability does the source give for HARA here?
A: 0.461

Q: HCC-78 was tested. Which relative viability did it give?
A: 0.182

Q: NCI-H322M was tested. Which relative viability did it give?
A: 0.538

Q: For LCLC-97TM1, which relative viability is on record?
A: 0.18

Q: How did the relative viability turn out when NCI-H2009 was run?
A: 0.873

Q: A-427 was tested. Which relative viability did it give?
A: 0.789

Q: NCI-H661 was tested. Which relative viability did it give?
A: 0.43

Q: Which relative viability does the source give for NCI-H1734 here?
A: 0.48

Q: For NCI-H460, which relative viability is on record?
A: 0.493

Q: NCI-H2347 was tested. Which relative viability did it give?
A: 0.678

Q: With SK-LU-1 as the cell line, how does the relative viability read?
A: 0.663

Q: For NCI-H1395, which relative viability is on record?
A: 0.703

Q: With 201T as the cell line, how does the relative viability read?
A: 0.71

Q: With NCI-H1915 as the cell line, how does the relative viability read?
A: 1.06

Q: Which relative viability does the source give for HCC-827 here?
A: 1.04

Q: How did the relative viability turn out when LXF-289 was run?
A: 0.835

compound: CC1(C)CNc2cc(NC(=O)c3cccnc3NCc3ccncc3)ccc21 [Motesanib]; experiment: relative viability (nuclei count vs DMSO), 5 days (fraction); higher = more cells survive; details: 0.01 µM
Outline: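 Viability is treated-well nuclei as a fraction of vehicle-well nuclei, reported as the median across plates. Before counting, lung cancer cell lines were kept overnight at 37 °C in 1536-well plates, pinned with five √10-spaced library-drug doses on vehicle-anchored plates, and left 5 days without medium change, then fixed, permeabilised and Hoechst-stained in one step, imaged at 4× and counted by MetaXpress. A plate passed only if control CV was below 25% and at least one doubling occurred.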

Q: Calu-6 was tested. Which relative viability did it give?
A: 1
